PubChem BioAssay (NCI)
Values joined by “and” are separate entries in the source; they are usually repeats but may differ in a detail not shown here. Equal entries are not always repeated.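 Compound exposure: 48 hours, 5 concentrations, 96-well plates. GI50 marks 50% less growth. Definition used: TGI = concentration required for complete inhibition of growth.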

Columns and labels:
Assay in all cases: NCI-60 cell line screen, 48 h
U251 CNS = tested on: U251 CNS
UACC-62 melanoma = tested on: UACC-62 melanoma
SR leukemia = tested on: SR leukemia
HOP-62 NSCLC = tested on: HOP-62 NSCLC
SK-OV-3 ovarian = tested on: SK-OV-3 ovarian
ACHN renal = tested on: ACHN renal
RXF 393 renal = tested on: RXF 393 renal
SNB-75 CNS = tested on: SNB-75 CNS
HL-60(TB) leukemia = tested on: HL-60(TB) leukemia
DU-145 prostate = tested on: DU-145 prostate

Row | SMILES | TGI (U251 CNS) [µM] | TGI (UACC-62 melanoma) [µM] | TGI (SR leukemia) [µM] | TGI (HOP-62 NSCLC) [µM] | TGI (SK-OV-3 ovarian) [µM] | TGI (ACHN renal) [µM] | TGI (RXF 393 renal) | TGI (SNB-75 CNS) | TGI (HL-60(TB) leukemia) | GI50 (ACHN renal) | GI50 (RXF 393 renal) | GI50 (U251 CNS) [µM] | GI50 (UACC-62 melanoma) [µM] | GI50 (HOP-62 NSCLC) [µM] | GI50 (DU-145 prostate) [µM] | TGI (DU-145 prostate) [µM] | GI50 (SK-OV-3 ovarian) [µM] | GI50 (SNB-75 CNS) [µM] | GI50 (SR leukemia) [µM] | GI50 (HL-60(TB) leukemia) [µM]
1 | COC[C@H](C)N=CN1CCc2ccccc2C1(Cc1ccccc1)Cc1ccccc1 | 26.9 | > 100 | 42 | 95.4 | 30.6 | 59.8 | 32.7 µM | 43 µM |  |  |  |  |  |  |  |  |  |  |  | 
2 | CCN(CC)CCNc1ccc2nc(C)n3c4ccc(O)cc4c(=O)c1c23 | 15.8 |  | 1.32 | 18.8 | 12.6 | 3.78 |  | 14.7 µM | 2.78 µM |  |  |  |  |  |  |  |  |  |  | 
3 | CCOC(=O)CNc1nnnn1C1OC(CO)C(O)C1O (stereo not drawn) | > 100 | > 100 |  | > 100 | > 100 | > 100 | > 100 µM | > 100 µM |  |  |  |  |  |  |  |  |  |  |  | 
4 | [O-]c1c2c(nn1-c1ccc(Cl)cc1)c1ccccc1c[n+]2Cc1ccccc1 | > 100 | > 100 | > 100 | > 100 | > 100 | > 100 | 79.5 µM | 69.2 µM | > 100 µM |  |  |  |  |  |  |  |  |  |  | 
5 | C/C(=N\NC(=O)CC(=O)N(C(=O)c1ccc(Cl)cc1)c1ccc(C)cc1)c1ccccc1O | > 100 | > 100 |  | > 100 | > 100 | > 100 | > 100 µM | 43.9 µM |  |  |  |  |  |  |  |  |  |  |  | 
6 | CCCCCCCCCCCCCB(O)O | > 100 | > 100 |  | > 100 | > 100 | > 100 | > 100 µM and 73.7 µM | > 100 µM and 37.6 µM | > 100 µM and 42.5 µM | > 100 µM and 45.4 µM | > 100 µM and 29.5 µM |  |  |  |  |  |  |  |  | 
7 | c1ccc(N/N=C2\NN=C(c3ccccc3)CS2)cc1 |  | 21.5 | > 100 | > 100 | 39.9 | 19.1 | 25.1 µM |  | > 100 µM |  |  |  |  |  |  |  |  |  |  | 
8 | CCCCN(CCCC)CCCn1cnc2ncccc2c1=O | > 100 | > 100 | > 100 | > 100 | > 100 | > 100 | > 100 µM | > 100 µM |  |  |  |  |  |  |  |  |  |  |  | 
9 | COC(=O)C(=O)C(C(=O)C(=O)Nc1cc(C)ccc1C)c1nc2ccc(C(=O)c3ccccc3)cc2[nH]c1=O (stereo not drawn) | > 100 | > 100 | > 100 |  |  | > 100 | > 100 µM |  |  |  |  |  |  |  |  |  |  |  |  | 
10 | C[Si](C)(C)C(Sc1ccccc1)(Sc1ccccc1)Sc1ccccc1 | > 100 | > 100 | > 100 |  | > 100 | > 100 | > 100 µM | > 100 µM | > 100 µM |  |  |  |  |  |  |  |  |  |  | 
11 | Cn1c2ccccc2c2c(=O)n(CCCC(=O)OC(=NC3CCCCC3)NC3CCCCC3)c3c(-c4ccccc4)nnn3c21 | > 100 | > 100 |  | > 100 | > 100 | > 100 | > 100 µM | > 100 µM |  | > 100 µM | 62.8 µM | > 100 | > 100 | > 100 | > 100 | > 100 | > 100 | 44.6 |  | 
12 | C[C@@H](Oc1cc(-n2cnc3ccc(OC[C@@H](O)CO)cc32)sc1C(N)=O)c1ccccc1Cl | > 25 | > 25 |  | > 25 | > 25 | > 25 | 2.08 µM | 4.41 µM | 0.869 µM | 6.11 µM | 0.0653 µM | 0.126 | 0.107 | 0.11 |  |  | 0.123 | 0.29 | 0.0743 | 0.0684
13 | COC(=O)/C(=N\NC(N)=O)C(C(=O)C=C(C)C)C(=O)C(=O)Nc1ccc(Cl)c(Cl)c1 (stereo not drawn) | > 100 | > 100 | > 100 | > 100 | > 100 | > 100 | > 100 µM | > 100 µM | > 100 µM |  |  |  |  |  |  |  |  |  |  | 
14 | CC1C2CC=CC(=O)[C@@]2(C)CCC12OCCO2 (stereo partly drawn) | > 100 | > 100 | > 100 | > 100 | > 100 | > 100 | > 100 µM | > 100 µM |  |  |  |  |  |  |  |  |  |  |  | 
15 | O=c1cc(-c2ccccc2)[nH]c2cc(Cl)ccc12 | 3.91 | 11.9 |  | 13.3 | 3.95 | 31 | 1.08 µM | 6.07 µM | 0.612 µM |  |  |  |  |  |  |  |  |  |  | 
16 | CCOCc1cc(=O)c2c(OC)cc3c(c2o1)CCC(C)(C)O3 | > 100 | > 100 | > 100 | > 100 | > 100 | > 100 | > 100 µM | > 100 µM | > 100 µM |  |  |  |  |  |  |  |  |  |  | 
17 | CC1CC[P+](c2ccccc2)(c2ccccc2)CC1 | > 100 | > 100 | > 100 | > 100 | > 100 | > 100 | > 100 µM | > 100 µM | > 100 µM |  |  |  |  |  |  |  |  |  |  | 
18 | COc1cc(/C=C2/C(=O)N(C(=O)OCc3ccccc3)C(Cc3cc(OC)c(OC)c(C)c3OC)C(=O)N2Cc2ccccc2)c(OC)c(C)c1OC (stereo not drawn) | > 100 | > 100 | > 100 | > 100 | > 100 | > 100 | > 100 µM | > 100 µM | > 100 µM |  |  |  |  |  |  |  |  |  |  | 

Row | SMILES | TGI (U251 CNS) [µM] | TGI (UACC-62 melanoma) [µM] | TGI (SR leukemia) [µM] | TGI (HOP-62 NSCLC) [µM] | TGI (SK-OV-3 ovarian) [µM] | TGI (ACHN renal) [µM] | TGI (RXF 393 renal) | TGI (SNB-75 CNS) | TGI (HL-60(TB) leukemia) | GI50 (ACHN renal) | GI50 (RXF 393 renal) | GI50 (U251 CNS) [µM] | GI50 (UACC-62 melanoma) [µM] | GI50 (HOP-62 NSCLC) [µM] | GI50 (DU-145 prostate) [µM] | TGI (DU-145 prostate) [µM] | GI50 (SK-OV-3 ovarian) [µM] | GI50 (SNB-75 CNS) [µM] | GI50 (SR leukemia) [µM] | GI50 (HL-60(TB) leukemia) [µM]
19 | CCN=C(C#N)NCC | > 100 | > 100 | > 100 | > 100 | > 100 | > 100 |  | > 100 µM | > 100 µM |  |  |  |  |  |  |  |  |  |  | 
20 | CCc1cccc(C)c1NC(=S)NC(=O)c1ccccc1C(=O)NC(=S)Nc1c(C)cccc1CC | > 100 | > 100 | > 100 | > 100 | > 100 | > 100 | > 100 µM | > 100 µM | > 100 µM |  |  |  |  |  |  |  |  |  |  | 
21 | COCCn1cc(-c2csc(-c3c[nH]c4ccc(Br)cc34)n2)c2cccnc21 | 73.2 | > 100 | > 100 | 47.7 | > 100 | > 100 | 11.2 µM | 29.4 µM |  | 3.04 µM | 3.3 µM | 6.18 | 4.2 | 7.98 |  |  | 13.9 | 4.72 | 3.25 | 
22 | Cc1ccccc1C1CC(c2ccccc2)=NO1 (stereo not drawn) | > 100 | > 100 | > 100 | > 100 | > 100 | > 100 |  | > 100 µM | > 100 µM |  |  |  |  |  |  |  |  |  |  | 
23 | C=C(CCCO)[C@@H]1CC[C@@](C)(O)[C@H]1C | > 100 | > 100 | > 100 |  | > 100 | > 100 | > 100 µM | > 100 µM |  |  |  |  |  |  |  |  |  |  |  | 
24 | CN(C)c1ccc2nc(CC(O)(C(F)(F)F)C(F)(F)F)ccc2c1 | > 10 | > 10 |  | > 10 | > 10 | > 10 | > 10 µM | > 10 µM |  |  |  |  |  |  |  | > 10 |  |  |  | 
25 | O=[N+]([O-])c1cc2c([N+](=O)[O-])cccc2o1 | > 100 | 27.7 |  | 37.2 | 31.3 | 10.6 | 20 µM |  |  |  |  |  |  |  |  | 42 |  |  |  | 
26 | C=CCN(N=O)C(=O)NCCCCC(NC(C)=O)C(=O)NCc1ccccc1 (stereo not drawn) | > 100 | > 100 |  | > 100 | > 100 | > 100 | > 100 µM | > 100 µM | > 100 µM |  |  |  |  |  |  |  |  |  |  | 
27 | COc1ccc(CCc2cc(OC)c(O)c(OC)c2)cc1 | > 100 | > 100 | > 100 | > 100 | > 100 | > 100 |  | > 100 µM |  |  |  |  |  |  |  |  |  |  |  | 
28 | c1ccc2c(NCCCCCCNc3cccc4ccccc34)cccc2c1 | > 100 | > 100 |  | > 100 | > 100 | > 100 |  | > 100 µM | > 100 µM |  |  |  |  |  |  |  |  |  |  | 
29 | CCOC1CC2OC(=O)C1C=C2C(=O)OC (stereo not drawn) | > 100 | > 100 |  | > 100 | > 100 | > 100 |  |  | 46.8 µM |  |  |  |  |  |  |  |  |  |  | 
30 | CC(=O)O[C@H]1CC2C=CC3C(CCC31)O2 (stereo partly drawn) | > 100 | > 100 |  | > 100 | > 100 | > 100 | > 100 µM | > 100 µM | > 100 µM |  |  |  |  |  |  |  |  |  |  | 
31 | CC(C)C1N2CCCCC2[C@@H]2c3[nH]c4ccccc4c3CCN12 (stereo partly drawn) | > 100 | > 100 |  | > 100 | > 100 | > 100 | > 100 µM | > 100 µM | > 100 µM |  |  |  |  |  |  |  |  |  |  | 
32 | Cn1cnc([N+](=O)[O-])c1Sc1nccc(=O)[nH]1 | > 100 | > 100 | > 100 | > 100 | > 100 | > 100 |  | > 100 µM |  |  |  |  |  |  |  |  |  |  |  | 
33 | Cc1ccc2nc(NC(=O)/C(=N\NC(=S)NN)C3C(=O)NC(=S)NC3=O)sc2c1 | > 100 | > 100 | > 100 | > 100 | > 100 | > 100 | > 100 µM | > 100 µM | > 100 µM |  |  |  |  |  |  |  |  |  |  | 
34 | CCOC(=O)C(C(O)c1ccc([N+](=O)[O-])cc1)P(=O)(OCC)OCC (stereo not drawn) | > 100 | > 100 |  | > 100 |  | > 100 | > 100 µM | > 100 µM | 64 µM |  |  |  |  |  |  |  |  |  |  | 
35 | COc1ccc2nc(NC(=O)C(=O)NNC(=O)c3ccncc3)sc2c1 | > 100 | > 100 |  | > 100 | > 100 | > 100 | > 100 µM | > 100 µM | > 100 µM |  |  |  |  |  |  |  |  |  |  | 
36 | Cc1cc(Cl)ccc1NC(=O)C(=O)C(C(=O)c1ccccc1)C1OC(=O)c2ccccc21 (stereo not drawn) | > 100 | > 100 | > 100 | > 100 | > 100 | > 100 | > 100 µM | > 100 µM | > 100 µM |  |  |  |  |  |  |  |  |  |  | 
